Reference: patent US8541670B2, “Compositions and methods for inhibiting tumor cell growth” (priority 2007, dated 2013)
Where no end group is shown, it is not given here.

Legend:
[1] = tested on: axonal filament bundles in striatum; assay: In vivo axon morphology, neurofilament-H staining of striatum after stereotactic injection; design: species or system mouse; conditions: 18 hours after surgery, versus DMSO hemisphere
Protocol: To determine the phenotypic effect of disrupting the AKT-PKAc complex in an in vivo setting, ZaTa peptide was stereotactically injected into the brain of a mouse and the animal was perfused 18 hours after recovery from surgery. Because AKT is known to have a role in axonal morphology (Markus, et al. (2002) Neuron 35:65-76), coronal sections of striatum were stained with neurofilament-H(NF—H), as an axonal-specific marker. […] PKA is also known to have a role in regeneration of growth cones on axons (Chierzi, et al. (2005) Eur. J. Neurosci. 21:2051-2062). Therefore, given the data provided herein, it is believed that a proper interaction between AKT and PKAc is involved in maintaining normal neuronal morphology.

AKT-PKAc complex = AKT-PKAc complex (Mus musculus, UniProt P31750); assay: In vivo co-immunoprecipitation of AKT-PKAc complex from striatum; design: ZaTa could disrupt the physical complex between AKT and PKAc in vivo; from tissue; host or cells: striatum of adult C57BL/6 mouse; species or system C57BL/6 mouse; conditions: versus vehicle-treated hemisphere
Protocol: The phenotypic consequence of disrupting the AKT-PKAc complex was also determined. ZaTa peptide was injected into the striatum of one hemisphere of the brain and DMSO, as vehicle, was injected into the other brain hemisphere of an adult C57BL/6 mouse under anesthesia. The brain was removed and dissected. Equal protein amounts from each hemisphere were subjected to immunoprecipitation by an anti-AKT antibody. […] To compare PKAc protein levels in the ZaTa- and vehicle-treated brain hemisphere lysates, western blot analysis was conducted.

PAK3 = PAK3 (Homo sapiens, UniProt O75914); assay: In vitro kinase assay PAK3; format: biochemical; conditions: ten times higher concentration than 0.1 μM
Protocol: As a specific substrate, the phosphorylation level of GSK-3[…] at Ser-9 was also evaluated. […] The decrease was specific to the AKT phosphorylation site on GSK-3[…] at Ser-9, since a change in the phosphorylation level of GSK-3[…] at Tyr-216 or GSK-3[…] at Tyr-279 was not observed. Moreover, the in vivo reduction of the phosphorylation of AKT substrates was more obvious at the injection site, since a significant change in the phosphorylation of AKT substrates in the frontal cortex or cerebellum between the two hemispheres was not observed. […] To test the specificity/selectivity of ZaTa as the inhibitor of AKT1 versus the other major kinases, a series of in vitro kinase assays was performed at IC50 for AKT1 and at ten times higher concentrations. A panel of the following 32 kinases was first tested in vitro using the active form of each kinase and a specific substrate: AKT2, AKT3, PKA, PKC[…], PKC, PI3K[…], PI3K[…], PI3K, SGK, PAK2, PAK3, SAPK2/p38, Abl, CaMKII, CDK1/cyclinB, CDK5/p35, CK1, CK2, CSK, GSK3[…], GSK3[…], JNK1[…]1, MAPK1, p70S6K, PDGFR[…], PDGFR[…], PDK1, PKG1[…], TrkB, JAK2, JAK3, and Syk. […] However, at ten times higher concentration, ZaTa inhibited AKT2 (63%), PI3K[…] (72%), p70S6K (64%), SGK (73%), PAK3 (83%), JAK3 (79%), TrkB (84%), and Abl (42%). […]

AKT = target: T1, AKT (Homo sapiens, UniProt P31749); assay: Screen of PKAc peptide library for effect on catalytic activity of AKT; format: biochemical; conditions: single peptide
T1 construct: purchased Upstate Biotechnology
Text: Unlike PKAc and protein kinase C (PKC) for which potent inhibitor peptides are readily available and widely used, inhibitors of AKT are generally lacking (Brazil, et al. (2004) supra). […] Moreover, optimal substrate motifs for AKT have been modified to design AKT inhibitors (Obata, et al. (2000) J. Biol. Chem. 275:36108-36115). Because the full-length PKAc protein inhibited the catalytic activity of AKT, a peptide library based on the human (GENBANK Accession No. NP_002721; SEQ ID NO:1) and bovine (GENBANK Accession No. CAA47627; SEQ ID NO:2) PKAc protein sequences was designed and synthesized. This library contained 96 overlapping peptides (Table 1), covering the full-length protein sequence of human and bovine PKAc from the N- to C-terminus. The library was extensively screened to identify fragments of PKAc that mediated the inhibitory effect of PKAc toward AKT.
These peptides included peptide 49 (SEQ ID NO:56), 53 (SEQ ID NO:60), 62 (SEQ ID NO:69), 63 (SEQ ID NO:70) and 64 (SEQ ID NO:71). Combinations of consecutive overlapping peptide fragments were also assayed for an effect on the catalytic activity of AKT. A significant inhibitory effect was also observed when peptides 25 through 36 were combined (i.e., SEQ ID NOs:32-43), peptides 37 through 48 were combined (i.e., SEQ ID NOs:44-55), peptides 49 through 60 were combined (i.e., SEQ ID NOs:56-67), and peptides 61 through 72 were combined (i.e., SEQ ID NOs:68-79).

T1 sequence (P31749 whole entry): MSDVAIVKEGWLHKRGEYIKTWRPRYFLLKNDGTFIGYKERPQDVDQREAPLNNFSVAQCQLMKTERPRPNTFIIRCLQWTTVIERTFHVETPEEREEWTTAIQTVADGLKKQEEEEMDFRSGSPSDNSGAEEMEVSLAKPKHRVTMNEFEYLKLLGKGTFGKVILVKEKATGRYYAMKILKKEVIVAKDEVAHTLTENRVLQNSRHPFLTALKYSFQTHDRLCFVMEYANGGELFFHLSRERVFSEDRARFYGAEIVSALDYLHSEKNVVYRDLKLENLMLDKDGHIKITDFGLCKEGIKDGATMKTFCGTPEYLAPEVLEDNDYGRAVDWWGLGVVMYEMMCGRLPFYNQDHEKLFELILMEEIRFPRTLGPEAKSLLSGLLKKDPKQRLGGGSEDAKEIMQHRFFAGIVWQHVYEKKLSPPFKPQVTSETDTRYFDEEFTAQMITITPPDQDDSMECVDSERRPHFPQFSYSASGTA
Sequence of AKT-PKAc complex (P31750 whole entry, one chain of several): as the sequence (P31749 whole entry) above, with S2N, A50S, T100A, K112R, E117T, K389T, G410N, H415D counted along it
Sequence of PAK3 (O75914 whole entry, species assumed): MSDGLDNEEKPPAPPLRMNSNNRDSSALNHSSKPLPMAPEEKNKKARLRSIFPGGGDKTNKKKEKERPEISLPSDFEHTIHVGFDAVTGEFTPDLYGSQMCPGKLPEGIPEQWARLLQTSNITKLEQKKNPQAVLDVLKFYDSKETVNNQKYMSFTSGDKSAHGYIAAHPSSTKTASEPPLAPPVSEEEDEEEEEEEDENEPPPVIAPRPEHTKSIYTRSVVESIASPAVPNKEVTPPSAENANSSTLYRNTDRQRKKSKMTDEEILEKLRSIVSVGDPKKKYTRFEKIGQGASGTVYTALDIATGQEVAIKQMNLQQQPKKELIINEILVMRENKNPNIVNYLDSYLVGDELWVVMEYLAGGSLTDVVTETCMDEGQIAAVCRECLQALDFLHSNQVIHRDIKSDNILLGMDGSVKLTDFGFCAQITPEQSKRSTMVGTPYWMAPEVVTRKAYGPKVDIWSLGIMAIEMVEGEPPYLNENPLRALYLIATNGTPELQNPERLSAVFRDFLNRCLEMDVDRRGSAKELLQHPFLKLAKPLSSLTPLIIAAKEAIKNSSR

## AKRVKGRTWTLCGTPEY [ZaTa]
[1]
  staining pattern of axonal filament bundles (NF-H) in striatum: Changes in the staining pattern of axonal filament bundles
AKT-PKAc complex
  amount of PKAc in physical contact with AKT, in vivo: dramatically reduced
PAK3
  inhibition of PAK3: 83%
AKT
  inhibitory effect toward AKT, individual library peptides: significant inhibitory effects
